According to ChEMBL document CHEMBL5329179, “Inhibitory effect of γ-ray-modified hydroxymethylated baicalins on NO production” (Bioorg Med Chem Lett, 2023):
Converted amounts (≈) assume the structure as drawn. The source made the active and inactive calls. No cut-off for these calls is given here.

Legend:
Assay type in all cases: functional, cell-based
RAW264.7 [1] = assay: Antiinflammatory activity against LPS-stimulated mouse RAW264.7 cells assessed as reduction in NO production
[2] = Antiinflammatory activity against LPS-stimulated dog DH82 cells assessed as reduction in NO production; conditions: Canis lupus familiaris
RAW264.7 [3] = assay: Antiinflammatory activity against LPS-stimulated mouse RAW264.7 cells assessed as reduction in iNOS mRNA expression level at 20 uM by qRT-PCR analysis
DH82 = assay: Antiinflammatory activity against LPS-stimulated dog DH82 cells assessed as reduction in iNOS mRNA expression level at 20 uM by qRT-PCR analysis; conditions: Canis lupus familiaris
RAW264.7 [4] = assay: Antiinflammatory activity against mouse RAW264.7 cells assessed as reduction in NO production compound photoirradiated using 50 kGy gamma-ray; conditions: RAW264.7, light or radiation study

SMILES	IC50 (RAW264.7 [1])	IC50 [2]	Activity (RAW264.7 [3])	Activity (DH82)	IC50 (RAW264.7 [4])
COc1c(O)cc2oc(-c3ccccc3)cc(=O)c2c1O [OROXYLIN A]	48.9 µM	50.6 µM			
O=C1C[C@](CO)(c2ccccc2)Oc2cc(O[C@@H]3O[C@H](C(=O)O)[C@@H](O)[C@H](O)[C@H]3O)c(O)c(O)c21	22.7 µM	24.9 µM	Active	Active	
O=C1C[C@](CO)(c2ccccc2)Oc2cc3c(c(O)c21)OOC3	> 200 µM	> 200 µM			
N=C(N)NN [PIMAGEDINE]	24.5 µM	21 µM			
O=C(O)[C@H]1O[C@@H](Oc2cc3oc(-c4ccccc4)cc(=O)c3c(O)c2O)[C@H](O)[C@@H](O)[C@@H]1O [BAICALIN]	157 µM	> 200 µM	Active	Active	35.2 µg/mL (≈ 78.9 µM)
O=C1C[C@@](CO)(c2ccccc2)Oc2cc(O[C@@H]3O[C@H](C(=O)O)[C@@H](O)[C@H](O)[C@H]3O)c(O)c(O)c21	18.9 µM	19.1 µM	Active	Active	
O=c1cc(-c2ccccc2)oc2cc(O)c(O)c(O)c12 [BAICALEIN]	30.4 µM	31.2 µM			
O=C(O)[C@H]1O[C@@H](Oc2cc3c(c(O)c2O)C(=O)[C@@H](CO)[C@](CO)(c2ccccc2)O3)[C@H](O)[C@@H](O)[C@@H]1O	68 µM	57.5 µM			
